Measured values published in patent US20200024278A1, “COMPOSITION COMPRISING ANTIBIOTIC COMPOUND AND AN HETEROCYCLIC COMPOUND AND THEIR USE IN PREVENTING OR TREATING BACTERIAL INFECTIONS” (MUTABILIS, priority 2016, published 2020).

Legend:
Experiment in all cases: MIC, broth microdilution (CLSI), substance alone or ATB combined with compound at 4 or 8 μg/mL
[1] = test system: ECO UFR39; type: cell-based, E. coli; details: ECO UFR39
In short: (§1)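 Per CLSI-M7-A7, MICs are determined in cation-adjusted Mueller-Hinton broth with a final inoculum of 5·10^5 CFU/mL. Plates incubate 16-20 h at 35° C in air and are read by eye. Fosfomycin assays carry 25 μg/ml glucose-6-phosphate.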

[2] = test system: ECO 190317; type: cell-based, E. coli; details: ECO 190317
In short: as §1

[3] = test system: SAU 29213; type: cell-based, S. aureus; details: SAU 29213
In short: as §1

[4] = test system: ECL P99; type: cell-based, E. cloacae; details: ECL P99
In short: as §1

[5] = test system: KPN UFR42; type: cell-based, K. pneumoniae; details: KPN UFR42
In short: as §1

[6] = test system: KPN BAA-1898; type: cell-based, K. pneumoniae; details: KPN BAA-1898
In short: as §1

MIC ATB alone ([1]; antibiotic alone): 0.5 µg/mL
MIC ATB combined with Example 1 @8 μg/ml ([1]; with Example 1 @8 μg/ml): <0.031 µg/mL
MIC ATB combined with Example 1 @8 μg/ml ([1]; with Example 1 at 8 μg/ml): <0.031 µg/mL
MIC ATB combined with Example 7 @8 μgml ([1]; with Example 7 at 8 μg/ml): <0.031 µg/mL
MIC ATB combined with Example 9 @4 μg/ml ([1]; with Example 9 @4 μg/ml): <0.031 µg/mL
MIC ATB combined with Example 9 @4 μg/ml ([1]; with Example 9 at 4 μg/ml): <0.031 µg/mL
MIC ATB combined with Example 11 @8 μg/ml ([1]; with Example 11 at 8 μg/ml): <0.031 µg/mL
MIC ATB combined with Example 12 @8 μg/ml ([1]; with Example 12 at 8 μg/ml): <0.031 µg/mL
MIC ATB combined with Example 13 @8 μg/ml ([1]; with Example 13 at 8 μg/ml): <0.031 µg/mL
MIC ATB combined with Example 14 @8 μg/ml ([1]; with Example 14 at 8 μg/ml): <0.031 µg/mL
MIC ATB combined with Example 15 @4 μgml ([1]; with Example 15 at 4 μg/ml): <0.031 µg/mL
MIC ATB combined with Example 16 @4 μg/ml ([1]; with Example 16 at 4 μg/ml): <0.031 µg/mL
MIC ATB alone ([2]; antibiotic alone): 0.25 µg/mL
MIC ATB combined with Example 1 @8 μg/ml ([2]; with Example 1 @8 μg/ml): <0.031 µg/mL
MIC ATB combined with Example 1 @8 μg/ml ([2]; with Example 1 at 8 μg/ml): <0.031 µg/mL
MIC ATB combined with Example 7 @8 μgml ([2]; with Example 7 at 8 μg/ml): <0.031 µg/mL
MIC ATB combined with Example 9 @4 μg/ml ([2]; with Example 9 @4 μg/ml): <0.031 µg/mL
MIC ATB combined with Example 9 @4 μg/ml ([2]; with Example 9 at 4 μg/ml): <0.031 µg/mL
MIC ATB combined with Example 11 @8 μg/ml ([2]; with Example 11 at 8 μg/ml): <0.031 µg/mL
MIC ATB combined with Example 12 @8 μg/ml ([2]; with Example 12 at 8 μg/ml): <0.031 µg/mL
MIC ATB combined with Example 13 @8 μg/ml ([2]; with Example 13 at 8 μg/ml): <0.031 µg/mL
MIC ATB combined with Example 14 @8 μg/ml ([2]; with Example 14 at 8 μg/ml): <0.031 µg/mL
MIC ATB combined with Example 15 @4 μgml ([2]; with Example 15 at 4 μg/ml): <0.031 µg/mL
MIC ATB combined with Example 16 @4 μg/ml ([2]; with Example 16 at 4 μg/ml): <0.031 µg/mL
MIC ATB alone ([3]; antibiotic alone): 0.25 µg/mL
MIC ATB combined with Example 1 @8 μg/ml ([3]; with Example 1 @8 μg/ml): 0.125 µg/mL
MIC ATB combined with Example 1 @8 μg/ml ([3]; with Example 1 at 8 μg/ml): 0.125 µg/mL
MIC ATB combined with Example 7 @8 μgml ([3]; with Example 7 at 8 μg/ml): 0.25 µg/mL
MIC ATB combined with Example 9 @4 μg/ml ([3]; with Example 9 @4 μg/ml): <0.031 µg/mL
MIC ATB combined with Example 9 @4 μg/ml ([3]; with Example 9 at 4 μg/ml): <0.031 µg/mL
MIC ATB combined with Example 11 @8 μg/ml ([3]; with Example 11 at 8 μg/ml): <=0.031 μg/mL
MIC ATB combined with Example 12 @8 μg/ml ([3]; with Example 12 at 8 μg/ml): <0.031 µg/mL
MIC ATB combined with Example 13 @8 μg/ml ([3]; with Example 13 at 8 μg/ml): 0.063 µg/mL
MIC ATB combined with Example 14 @8 μg/ml ([3]; with Example 14 at 8 μg/ml): <0.031 µg/mL
MIC ATB combined with Example 15 @4 μgml ([3]; with Example 15 at 4 μg/ml): <0.031 µg/mL
MIC ATB combined with Example 16 @4 μg/ml ([3]; with Example 16 at 4 μg/ml): <0.031 µg/mL
MIC ATB alone ([4]; antibiotic alone): 0.5 µg/mL
MIC ATB combined with Example 1 @8 μg/ml ([4]; with Example 1 @8 μg/ml): <0.031 µg/mL
MIC ATB combined with Example 1 @8 μg/ml ([4]; with Example 1 at 8 μg/ml): <0.031 µg/mL
MIC ATB combined with Example 7 @8 μgml ([4]; with Example 7 at 8 μg/ml): 0.25 µg/mL
MIC ATB combined with Example 9 @4 μg/ml ([4]; with Example 9 @4 μg/ml): <0.031 µg/mL
MIC ATB combined with Example 9 @4 μg/ml ([4]; with Example 9 at 4 μg/ml): <0.031 µg/mL
MIC ATB combined with Example 11 @8 μg/ml ([4]; with Example 11 at 8 μg/ml): <0.031 µg/mL
MIC ATB combined with Example 12 @8 μg/ml ([4]; with Example 12 at 8 μg/ml): <0.031 µg/mL
MIC ATB combined with Example 13 @8 μg/ml ([4]; with Example 13 at 8 μg/ml): 0.25 µg/mL
MIC ATB combined with Example 14 @8 μg/ml ([4]; with Example 14 at 8 μg/ml): <0.031 µg/mL
MIC ATB combined with Example 15 @4 μgml ([4]; with Example 15 at 4 μg/ml): <0.031 µg/mL
MIC ATB combined with Example 16 @4 μg/ml ([4]; with Example 16 at 4 μg/ml): <0.031 µg/mL
MIC ATB alone ([5]; antibiotic alone): 2 µg/mL
MIC ATB combined with Example 1 @8 μg/ml ([5]; with Example 1 @8 μg/ml): 2 µg/mL
MIC ATB combined with Example 1 @8 μg/ml ([5]; with Example 1 at 8 μg/ml): 2 µg/mL
MIC ATB combined with Example 7 @8 μgml ([5]; with Example 7 at 8 μg/ml): 0.5 µg/mL
MIC ATB combined with Example 9 @4 μg/ml ([5]; with Example 9 @4 μg/ml): 0.25 µg/mL
MIC ATB combined with Example 9 @4 μg/ml ([5]; with Example 9 at 4 μg/ml): 0.25 µg/mL
MIC ATB combined with Example 11 @8 μg/ml ([5]; with Example 11 at 8 μg/ml): <0.031 µg/mL
MIC ATB combined with Example 12 @8 μg/ml ([5]; with Example 12 at 8 μg/ml): <0.031 µg/mL
MIC ATB combined with Example 13 @8 μg/ml ([5]; with Example 13 at 8 μg/ml): 2 µg/mL
MIC ATB combined with Example 14 @8 μg/ml ([5]; with Example 14 at 8 μg/ml): <0.031 µg/mL
MIC ATB combined with Example 15 @4 μgml ([5]; with Example 15 at 4 μg/ml): <0.031 µg/mL
MIC ATB combined with Example 16 @4 μg/ml ([5]; with Example 16 at 4 μg/ml): <0.031 µg/mL
MIC ATB alone ([6]; antibiotic alone): 1 µg/mL
MIC ATB combined with Example 1 @8 μg/ml ([6]; with Example 1 @8 μg/ml): 1 µg/mL
MIC ATB combined with Example 1 @8 μg/ml ([6]; with Example 1 at 8 μg/ml): 1 µg/mL
MIC ATB combined with Example 7 @8 μgml ([6]; with Example 7 at 8 μg/ml): 1 µg/mL
MIC ATB combined with Example 9 @4 μg/ml ([6]; with Example 9 @4 μg/ml): <0.031 µg/mL
MIC ATB combined with Example 9 @4 μg/ml ([6]; with Example 9 at 4 μg/ml): <0.031 µg/mL
Structure (SMILES): CN(C)c1cc(NC(=O)CNC(C)(C)C)c(O)c2c1C[C@H]1C[C@H]3[C@H](N(C)C)C(O)=C(C(N)=O)C(=O)[C@@]3(O)C(O)=C1C2=O [TGC]
